The target of data set [1] is Androgen receptor (Homo sapiens, UniProt P10275, F877L). As to the kind of experiment: Antagonist activity at AR F877L mutant (unknown origin) transfected in human LNCAP cells assessed as inhibition of R1881-stimulated receptor transcriptional activation measured after 20 to 24 hrs by Steady-Glo luciferase assay. Format: cell-based.
In data set [2] the target is T1, Androgen receptor (Homo sapiens, UniProt P10275).
T1 sequence (P10275 whole entry): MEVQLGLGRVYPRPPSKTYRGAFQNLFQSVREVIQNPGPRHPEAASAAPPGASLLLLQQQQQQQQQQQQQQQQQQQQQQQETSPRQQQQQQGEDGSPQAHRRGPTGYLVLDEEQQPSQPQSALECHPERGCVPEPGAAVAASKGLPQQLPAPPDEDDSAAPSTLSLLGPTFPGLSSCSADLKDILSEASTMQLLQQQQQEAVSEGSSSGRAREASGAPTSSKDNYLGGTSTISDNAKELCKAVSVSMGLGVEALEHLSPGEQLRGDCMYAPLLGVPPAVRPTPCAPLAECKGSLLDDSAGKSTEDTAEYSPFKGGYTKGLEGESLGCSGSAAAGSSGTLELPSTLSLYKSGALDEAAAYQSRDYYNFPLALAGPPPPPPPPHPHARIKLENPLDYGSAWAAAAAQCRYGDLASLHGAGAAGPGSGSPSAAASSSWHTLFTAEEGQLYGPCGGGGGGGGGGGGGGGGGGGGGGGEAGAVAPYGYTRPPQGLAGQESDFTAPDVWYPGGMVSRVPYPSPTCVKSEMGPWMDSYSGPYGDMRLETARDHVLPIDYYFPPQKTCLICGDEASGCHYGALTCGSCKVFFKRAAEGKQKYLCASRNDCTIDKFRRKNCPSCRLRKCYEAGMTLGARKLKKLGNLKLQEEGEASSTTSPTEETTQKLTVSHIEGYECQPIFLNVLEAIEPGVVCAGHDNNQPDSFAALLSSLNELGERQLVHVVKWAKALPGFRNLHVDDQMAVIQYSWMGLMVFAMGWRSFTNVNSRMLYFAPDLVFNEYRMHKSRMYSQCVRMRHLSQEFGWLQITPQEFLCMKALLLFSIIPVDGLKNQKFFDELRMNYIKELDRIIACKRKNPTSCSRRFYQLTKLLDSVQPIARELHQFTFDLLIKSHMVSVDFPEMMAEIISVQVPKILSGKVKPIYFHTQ
Format: tissue-based, LNCaP.
Description: Antagonist activity at wild type androgen receptor in castration-resistant human LNCaP cells assessed as inhibition of R1881-stimulated receptor transcriptional activation measured after 20 to 24 hrs by Steady-Glo luciferase assay

Data set [3] in a line: Metabolic stability in dog liver microsomes assessed as unchanged parent compound remaining at 10 uM incubated for 60 mins in presence of [13C2,15N-glycine]GSH and NADPH by LC-MS/MS analysis. Format: ADME, Canis lupus familiaris, Microsome. The following applies: read-out: Stabilty. On the technique in general: Microsomes from liver hold many membrane-bound enzymes, among them those of drug oxidation.

Data set [4] in a line: Clearance in CD-1 mouse at 2 mg/kg, iv. The class given is ADME, organism-based. The following applies: in vivo.
Data set [5] is described as follows: AUC (0 to infinity) in CD-1 mouse at 10 mg/kg, po. The class given is ADME, organism-based. More on the design: time infinity, route oral, dose 10 mg/kg. Particulars: in vivo.
The nature of data set [6]: Metabolic stability in human liver microsomes assessed as half life. The class given is ADME, Microsome.
Data set [7] in a line: Oral bioavailability in CD-1 mouse at 10 mg/kg. The class given is ADME, organism-based. The following applies: in vivo.
A short description of data set [8]: Half life in CD-1 mouse at 2 mg/kg, iv. Format: ADME, organism-based. The following applies: in vivo.
A short description of data set [9]: Cmax in CD-1 mouse at 10 mg/kg, po. Format: ADME, organism-based. Further details: route oral, dose 10 mg/kg. The following applies: in vivo.
Data set [10] can be described thus: Volume of distribution in steady state in CD-1 mouse at 2 mg/kg, iv. Format: ADME, organism-based. Particulars: in vivo, read-out: Vdss.
Data set [11] can be described thus: Metabolic stability in dog liver microsomes assessed as unchanged parent compound remaining at 10 uM incubated for 60 mins in presence of [13C2,15N-glycine]GSH by LC-MS/MS analysis. Format: ADME, Canis lupus familiaris, Microsome. Particulars: read-out: Stabilty.

SMILES strings stand for the structures.

A word on the IC50: it is the concentration at which inhibition is half-maximal. Broadly, the clearance is a measure of how efficiently the substance is removed, as volume per time. By AUC(0-inf) is commonly meant the area under the concentration-time curve extrapolated to infinity. As usually defined, the half-life is how long it takes for the measured level to halve. Broadly, the Cmax is the highest concentration seen after dosing.

Chain of Androgen receptor (Homo sapiens, UniProt P10275, F877L) (P10275 whole entry F877L): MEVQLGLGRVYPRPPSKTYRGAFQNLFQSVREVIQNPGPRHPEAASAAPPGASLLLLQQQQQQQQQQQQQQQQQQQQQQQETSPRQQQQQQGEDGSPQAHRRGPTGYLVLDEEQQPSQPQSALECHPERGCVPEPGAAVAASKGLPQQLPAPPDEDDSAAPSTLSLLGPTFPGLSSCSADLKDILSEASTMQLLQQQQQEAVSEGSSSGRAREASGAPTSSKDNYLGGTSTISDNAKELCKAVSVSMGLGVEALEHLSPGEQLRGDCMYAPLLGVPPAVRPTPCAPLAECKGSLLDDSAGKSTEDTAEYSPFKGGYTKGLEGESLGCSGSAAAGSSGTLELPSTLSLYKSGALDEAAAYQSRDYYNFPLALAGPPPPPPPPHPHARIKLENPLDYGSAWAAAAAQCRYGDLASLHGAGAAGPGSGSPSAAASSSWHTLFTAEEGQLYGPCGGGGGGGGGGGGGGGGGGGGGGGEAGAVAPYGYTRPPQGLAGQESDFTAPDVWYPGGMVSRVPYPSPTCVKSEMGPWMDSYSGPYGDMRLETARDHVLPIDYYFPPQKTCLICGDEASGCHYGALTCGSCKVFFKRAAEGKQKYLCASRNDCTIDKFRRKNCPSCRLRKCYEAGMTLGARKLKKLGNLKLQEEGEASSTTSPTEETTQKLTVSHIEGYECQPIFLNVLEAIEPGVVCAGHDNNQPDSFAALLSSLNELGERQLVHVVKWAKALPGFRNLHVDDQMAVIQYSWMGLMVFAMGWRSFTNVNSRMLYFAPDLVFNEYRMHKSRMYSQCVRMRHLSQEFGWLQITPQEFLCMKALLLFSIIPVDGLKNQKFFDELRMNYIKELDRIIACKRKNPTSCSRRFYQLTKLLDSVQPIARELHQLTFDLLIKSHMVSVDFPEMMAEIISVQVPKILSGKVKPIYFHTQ

As for `CNC(=O)c1ccc2c(c1)CC1(C2)NC(=S)N(c2cnc(C#N)c(C(F)(F)F)c2)C1=O` (stereo not given), the IC50 at Androgen receptor [1] and against Androgen receptor [2] was more than 15 µM throughout.
Turning to `CNC(=O)c1ccc2c(c1)CC1(C2)C(=O)N(c2ccc(C#N)c(C(F)(F)F)c2)C(=O)N1C` (stereo not given), the results for the 50% inhibitory concentration (IC50) at Androgen receptor [1] and against Androgen receptor [2] were 1.66 µM and more than 30 µM, respectively.
On to `N#Cc1ncc(N2C(=O)C3(CCC3)N(c3ccc(O)cc3)C2=S)cc1C(F)(F)F`, for which the remaining at 1 h, 10 µM in [3] came out at 78.7%.
As to `CNC(=O)c1ccc2c(c1)CC1(C2)NC(=S)N(c2ccc(C#N)c(C(F)(F)F)c2)C1=O` (stereo not given), the concentration for half-maximal inhibition (IC50) at Androgen receptor [1] is 5.01 µM; at Androgen receptor [2], 11.2 µM.
Consider `CNC(=O)c1cc2c(cc1F)CC1(C2)C(=O)N(c2cnc(C#N)c(C(F)(F)F)c2)C(=S)N1C(C)C` (stereo not given), for which the clearance in [4] came to 3.4 mL/min/kg. In data set [5], this molecule showed an area under the curve AUC(0-inf) of 27000 ng·h/mL. Further, the half-life in [6] is more than 3 h; in data set [8], 19.5 h. Also, the bioavailability in [7] came out at 61%. Besides, the Cmax in [9] turned out to be 3.69 µM. Further, in data set [10], the Vd stood at 4.8 L/kg.
For `CNC(=O)c1cc2c(cc1F)C[C@@]1(C2)C(=O)N(c2ccc(C#N)c(C(F)(F)F)c2)C(=S)N1C(C)C`, the clearance in data set [4] was determined as 3 mL/min/kg. Further, the area under the curve AUC(0-inf) in [5] was 50400 ng·h/mL. Moreover, the half-life is more than 3 h in data set [6] and 5.2 h in data set [8]. Besides, the bioavailability in data set [7] is 91%. This molecule also had a Cmax in data set [9] of 5.81 µM. The Vd in data set [10] was found to be 1.8 L/kg.
As for `CN1C(=S)N(c2cnc(C#N)c(C(F)(F)F)c2)C(=O)C12Cc1ccc(O)cc1C2` (stereo not given), the values for the remaining at 1 h, 10 µM in data set [11] and in [3] were 100% and 52.3%, respectively.
In turn, `CNC(=O)c1cc2c(cc1F)C[C@]1(C2)C(=O)N(c2ccc(C#N)c(C(F)(F)F)c2)C(=S)N1C(C)C` yielded a clearance in data set [4] of 0.9 mL/min/kg. This molecule registered an AUC(0-inf) in [5] of 104000 ng·h/mL. Moreover, the half-life in [6] was more than 3 h; in data set [8], 10.3 h. Besides, the bioavailability in data set [7] was 63%. In data set [9], this molecule gave a Cmax of 5.86 µM. In addition, in data set [10], the Vd amounted to 1.7 L/kg.
`CNC(=O)c1cc2c(cc1F)C[C@]1(C2)C(=O)N(c2cnc(C#N)c(C(F)(F)F)c2)C(=S)N1C(C)C` had a clearance in [4] of 1.3 mL/min/kg. The molecule further showed an AUC(0-inf) in data set [5] of 99400 ng·h/mL. Also, the half-life in data set [6] is 2.25 h; in data set [8], 15.8 h. Further, the bioavailability in data set [7] stood at 80%. Also, in data set [9], the peak level (Cmax) was 6.1 µM. Further, the Vd in [10] amounted to 1.9 L/kg.
As for `CN1C(=S)N(c2cnc(C#N)c(C(F)(F)F)c2)C(=O)C12Cc1ccc(OC3CCNCC3)cc1C2` (stereo not given), the clearance in data set [4] worked out at 11.5 mL/min/kg. The remaining at 1 h, 10 µM in data set [11] turned out to be 100%; in data set [3], 98.4%. The molecule further came in with an AUC(0-inf) in data set [5] of 15200 ng·h/mL. Besides, the half-life in data set [6] was more than 3 h; in [8], 16.7 h. Besides, the bioavailability in data set [7] worked out at 97%. The molecule also yielded a Cmax in [9] of 0.92 µM. Further, the Vd in data set [10] turned out to be 16.3 L/kg.
As for `CNC(=O)c1cc2c(cc1F)CC1(C2)C(=O)N(c2ccc(C#N)c(C(F)(F)F)c2)C(=S)N1C(C)C` (stereo not given), the clearance in data set [4] amounted to 1.6 mL/min/kg. For the same molecule, the AUC(0-inf) in [5] came out at 107000 ng·h/mL. In addition, the figures for the half-life in data set [6] and in [8] were more than 3 h and 14.8 h, respectively. Further, the bioavailability in data set [7] stood at 102%. In addition, in [9], the peak concentration (Cmax) came out at 8.85 µM. For the same molecule, the Vd in data set [10] was 1.7 L/kg.
In the case of `CNC(=O)c1cc2c(cc1F)C[C@@]1(C2)C(=O)N(c2cnc(C#N)c(C(F)(F)F)c2)C(=S)N1C(C)C`, the clearance in data set [4] was determined as 4 mL/min/kg. The same molecule displayed an AUC(0-inf) in data set [5] of 39100 ng·h/mL. Moreover, the half-life in data set [6] is 1.97 h; in data set [8], 6.9 h. Moreover, the bioavailability in [7] came out at 92%. Moreover, the Cmax in data set [9] was 3.7 µM. In addition, the Vd in data set [10] amounted to 2.3 L/kg.
